Data published in ChEMBL document CHEMBL1129761, “2-[(Alkylsulfonyl)oxy]-6-substituted-1H-isoindole-1,3(2H)-dione mechanism-based inhibitors of human leukocyte elastase” (Bioorg Med Chem Lett, 1996).

How the values were obtained:
[1] = molecular target: T1, Neutrophil elastase (Homo sapiens) (UniProt P08246); test: Compound was evaluated for the inhibition of human leukocyte elastase (HLE).
T1 sequence (whole entry): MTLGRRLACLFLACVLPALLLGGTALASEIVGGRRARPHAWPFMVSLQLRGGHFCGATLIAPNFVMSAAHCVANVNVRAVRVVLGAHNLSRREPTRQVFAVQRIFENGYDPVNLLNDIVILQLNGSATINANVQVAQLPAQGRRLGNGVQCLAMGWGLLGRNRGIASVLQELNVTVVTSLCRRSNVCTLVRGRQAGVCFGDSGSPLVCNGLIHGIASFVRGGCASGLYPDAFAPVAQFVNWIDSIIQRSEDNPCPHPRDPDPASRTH

[2] = molecular target: T2, Chymotrypsin-like elastase family member 2A (Sus scrofa) (UniProt P08419); test: Compound was evaluated for the inhibition of porcine pancreatic elastase (PPE).
T2 sequence (whole entry): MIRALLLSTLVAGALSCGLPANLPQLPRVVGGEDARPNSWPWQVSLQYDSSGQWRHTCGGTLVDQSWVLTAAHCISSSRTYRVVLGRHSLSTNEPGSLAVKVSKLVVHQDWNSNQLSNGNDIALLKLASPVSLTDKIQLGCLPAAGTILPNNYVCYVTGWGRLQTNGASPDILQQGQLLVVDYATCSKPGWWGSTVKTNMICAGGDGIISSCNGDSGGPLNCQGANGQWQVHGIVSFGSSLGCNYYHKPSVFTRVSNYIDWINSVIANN

[3] = molecular target: Chymotrypsinogen A (Bos taurus) (UniProt P00766); test: Compound was evaluated for the inhibition of Chymotrypsinogen

Compound	k obs / 1 [1]	k obs / 1 [2]	k obs / 1 [3]
CS(=O)(=O)ON1C(=O)c2ccc(N)cc2C1=O	110000 M⁻¹ s⁻¹	24000 M⁻¹ s⁻¹	12000 M⁻¹ s⁻¹
CS(=O)(=O)ON1C(=O)c2ccccc2C1=O	61000 M⁻¹ s⁻¹	6500 M⁻¹ s⁻¹	2700 M⁻¹ s⁻¹
Cc1ccc(S(=O)(=O)ON2C(=O)c3ccccc3C2=O)cc1	78000 M⁻¹ s⁻¹	1400 M⁻¹ s⁻¹	90000 M⁻¹ s⁻¹
Cc1ccc2c(c1)C(=O)N(OS(C)(=O)=O)C2=O	30000 M⁻¹ s⁻¹	21000 M⁻¹ s⁻¹	16000 M⁻¹ s⁻¹
CC(C)S(=O)(=O)ON1C(=O)c2ccccc2C1=O	63000 M⁻¹ s⁻¹	370 M⁻¹ s⁻¹	160000 M⁻¹ s⁻¹
Cc1ccc(S(=O)(=O)ON2C(=O)c3ccc(C)cc3C2=O)cc1	58000 M⁻¹ s⁻¹	7400 M⁻¹ s⁻¹	27000 M⁻¹ s⁻¹
CC(C)S(=O)(=O)ON1C(=O)c2ccc(N)cc2C1=O	82000 M⁻¹ s⁻¹	22000 M⁻¹ s⁻¹	11000 M⁻¹ s⁻¹
